Experimental findings from patent US20240116990A1, “Compositions and Methods of Treatment Using CRRL 191” (Mayo Foundation for Medical Education and Research, priority 2022, published 2024) are described below.

Bridge positions count the residues as written; N and C are the ends.

This data set has as its target recombinant human neprilysin (NEP) (Homo sapiens, UniProt P08473). Nature of the data set: In vitro neprilysin degradation assay (residual cGMP generation in HEK/GCA cells). Particulars: for original bioactivity retained: 37° C. As for the experimental part:
Briefly, 5 μl of 2×10^−5 M peptide is incubated with 5 μl (10 ng/μl) recombinant NEP in 90 μl Tris/0.1% BSA buffer (50 mM Tris-HCl, pH 7.5, 150 mM NaCl, 5 mM MgCl2, 0.1% BSA) at 37° C. for various lengths of time ranging from 15 min to 24 hours. Peptides for the 0-min timepoint are incubated without NEP (buffer only). After incubation for the required length of time (0-min to 24-hour), 100 μl of 0.5 N perchloric acid is added to the reaction solution to inactivate NEP and stop degradation, and 20 μl of 2.5 N NaOH is added to neutralize the solution. The neutralized reaction aliquot is added to HEK/GCA cells and the residual capability of the undegraded peptide (diluted to a final concentration 5.5×10^−8 M) to produce cGMP is measured using the same commercial cGMP ELISA kit (Enzo Life Sciences, Farmingdale, NY) as described in Example 2, following the instructions of the manufacturer.

recombinant human neprilysin (NEP), sequence (P08473 whole entry): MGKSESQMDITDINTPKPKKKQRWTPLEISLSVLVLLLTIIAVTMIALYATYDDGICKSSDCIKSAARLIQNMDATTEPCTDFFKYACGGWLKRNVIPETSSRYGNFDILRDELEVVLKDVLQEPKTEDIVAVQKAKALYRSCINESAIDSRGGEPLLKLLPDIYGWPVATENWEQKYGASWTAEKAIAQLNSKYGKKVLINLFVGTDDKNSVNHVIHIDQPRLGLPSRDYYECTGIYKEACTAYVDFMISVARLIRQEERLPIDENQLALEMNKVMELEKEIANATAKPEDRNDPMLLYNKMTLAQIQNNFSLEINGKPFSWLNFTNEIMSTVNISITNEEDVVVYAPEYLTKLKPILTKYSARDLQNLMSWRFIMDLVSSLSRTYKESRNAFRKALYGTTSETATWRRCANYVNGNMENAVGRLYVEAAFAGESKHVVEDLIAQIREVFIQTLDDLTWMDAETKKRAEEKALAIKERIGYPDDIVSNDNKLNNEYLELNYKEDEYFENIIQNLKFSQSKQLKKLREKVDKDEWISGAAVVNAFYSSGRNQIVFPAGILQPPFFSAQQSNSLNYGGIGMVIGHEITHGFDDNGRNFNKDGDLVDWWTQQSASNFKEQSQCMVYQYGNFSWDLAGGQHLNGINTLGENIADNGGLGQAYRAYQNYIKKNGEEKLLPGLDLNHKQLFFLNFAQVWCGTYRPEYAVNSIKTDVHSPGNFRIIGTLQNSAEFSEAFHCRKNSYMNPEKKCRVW

“H-RALLTAPRSLRRSSCFGHKIDRINHVSNLGCNSFRYRITAREDKQGWA-OH (disulfide 15-31) [CRRL 191]”: under “FIG. 3”, the “resistance to degradation by neprilysin compared to ANP” value is given as “highly resistant”. The original bioactivity retained result runs as follows: (after 30 minutes of neprilysin degradation) “about 90%”; (after 6 hours of neprilysin degradation) 84%.
